Assay results reported in patent publication US20260053932A1, “COMPOUNDS AND METHODS FOR THE TARGETED DEGRADATION OF ANDROGEN RECEPTOR AND ASSOCIATED METHODS OF USE” (Arvinas Operations, Inc., priority 2020, published 2026).

system: androgen receptor (AR) in LNCaP and/or VCaP cells; assay: Androgen Receptor ELISA assay (AR degradation); assay type: cell-based; conditions: LNCaP and/or VCaP cells; 5 hours incubation; media with R1881; read-out: DC50 Code* (degradation of AR ELISA)
How it was run: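 VCaP cells grown ≥3 days, then treated 5 h with compound in media containing 1 nM R1881 (10× stock). Cells lysed and AR quantified by sandwich ELISA (mouse AR detection Ab, HRP anti-mouse, TMB). DC50 and Dmax derived from AR degradation.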

`CC(C)N(CC1CCN(c2cnc(C(=O)N[C@H]3CC[C@H](Oc4ccc(C#N)c(Cl)c4)CC3)cn2)CC1)[C@H]1C[C@H](Oc2ccc3c(c2)C(=O)N(C2CCC(=O)NC2=O)C3)C1` (some centres unmarked) [Compound 41, N-((1r,4r)-4-(3-chloro-4-cyanophenoxy)cyclohexyl)-5-(4-((((1r,3r)-3-((2-(2,6-dioxopiperidin-3-yl)-3-oxoisoindolin-5-yl)oxy)cyclobutyl) (isopropyl)amino)methyl)piperidin-1-yl)pyrazine-2-carboxamide] and `N#Cc1ccc(O[C@H]2CC[C@H](NC(=O)c3cnc(N4CCC(CN(C5COC5)[C@H]5C[C@H](Oc6ccc7c(c6)C(=O)N(C6CCC(=O)NC6=O)C7)C5)CC4)cn3)CC2)cc1Cl` (some centres unmarked) [Compound 15, N-((1r,4r)-4-(3-chloro-4-cyanophenoxy)cyclohexyl)-5-(4-((((1r,3r)-3-((2-(2,6-dioxopiperidin-3-yl)-3-oxoisoindolin-5-yl)oxy)cyclobutyl) (oxetan-3-yl)amino)methyl)piperidin-1-yl)pyrazine-2-carboxamide] cannot be ordered by DC50: less than 1 nM for the first, less than 1 nM for the second.

`COc1cc(O[C@H]2CC[C@H](NC(=O)c3cnc(N4CC5(CC(CN(C(C)C)[C@H]6C[C@H](Oc7ccc8c(c7)C(=O)N(C7CCC(=O)NC7=O)C8=O)C6)C5)C4)nc3)CC2)ccc1C#N` (some centres unmarked) [Compound 36, N-((1r,4r)-4-(4-cyano-3-methoxyphenoxy)cyclohexyl)-2-(6-((((1r,3r)-3-((2-(2,6-dioxopiperidin-3-yl)-1,3-dioxoisoindolin-5-yl)oxy)cyclobutyl) (isopropyl)amino)methyl)-2-azaspiro[3.3]heptan-2-yl)pyrimidine-5-carboxamide] and `COCC(C)N(CC1CCN(c2cnc(C(=O)N[C@H]3CC[C@H](Oc4ccc(C#N)c(Cl)c4)CC3)cn2)CC1)[C@H]1C[C@H](Oc2ccc3c(c2)C(=O)N(C2CCC(=O)NC2=O)C3=O)C1` (some centres unmarked) [Compound 55, N-((1r,4r)-4-(3-chloro-4-cyanophenoxy)cyclohexyl)-5-(4-((((1r,3r)-3-((2-(2,6-dioxopiperidin-3-yl)-1,3-dioxoisoindolin-5-yl)oxy)cyclobutyl)(1-methoxypropan-2-yl)amino)methyl)piperidin-1-yl)pyrazine-2-carboxamide] cannot be ordered by DC50: less than 1 nM for the first, less than 1 nM for the second.

same assay, conditions: degradation of AR ELISA in LNCaP and/or VCaP cells; Table 2C; read-out: DC50 Code*

`Cc1cc(O[C@H]2C(C)(C)[C@H](NC(=O)c3ccc(N4CCC(OCCN(C)[C@H]5C[C@H](Oc6ccc7c(c6)C(=O)N(C6CCC(=O)NC6=O)C7=O)C5)CC4)cc3)C2(C)C)cc(C)c1C#N` (mixture of isomers) [compound 150, rac-N-((1r,3r)-3-(4-cyano-3,5-dimethylphenoxy)-2,2,4,4-tetramethylcyclobutyl)-4-(4-(2-(((1r,3r)-3-((2-(2,6-dioxopiperidin-3-yl)-1,3-dioxoisoindolin-5-yl)oxy)cyclobutyl) (methyl)amino)ethoxy)piperidin-1-yl)benzamide] and `Cc1cc(O[C@H]2C(C)(C)[C@H](NC(=O)c3ccc(CN4CCOC[C@@H]4CN(C)[C@H]4C[C@H](Oc5ccc6c(c5)C(=O)N(C5CCC(=O)NC5=O)C6=O)C4)cc3)C2(C)C)cc(C)c1C#N` (stereo partly drawn) [compound 151, N-((1r,3S)-3-(4-cyano-3,5-dimethylphenoxy)-2,2,4,4-tetramethylcyclobutyl)-4-(((3S)-3-((((1r,3S)-3-((2-(2,6-dioxopiperidin-3-yl)-1,3-dioxoisoindolin-5-yl)oxy)cyclobutyl) (methyl)amino)methyl)morpholino)methyl) benzamide] cannot be ordered by DC50: less than 1 nM for the first, less than 1 nM for the second.

`COCCN(CC1CCN(c2ccc(C(=O)NC3C(C)(C)C(Oc4ccc(C#N)c(OC)c4)C3(C)C)cc2)CC1)C1CC(Oc2ccc3c(c2)C(=O)N([C@@H]2CCC(=O)NC2=O)C3=O)C1` (some centres unmarked) [compound 101, N-((1r,3r)-3-(4-cyano-3-methoxyphenoxy)-2,2,4,4-tetramethylcyclobutyl)-4-(4-((((1r,3r)-3-((2-(2,6-dioxopiperidin-3-yl)-1,3-dioxoisoindolin-5-yl)oxy)cyclobutyl)(2-methoxyethyl)amino)methyl)piperidin-1-yl)benzamide] and `COc1cc(O[C@H]2C(C)(C)[C@H](NC(=O)c3ccc(N4CCC(CN(CCN5CCOCC5)[C@H]5C[C@H](Oc6ccc7c(c6)C(=O)N(C6CCC(=O)NC6=O)C7=O)C5)CC4)cc3)C2(C)C)ccc1C#N` (some centres unmarked) [compound 204, N-((1r,3r)-3-(4-cyano-3-methoxyphenoxy)-2,2,4,4-tetramethylcyclobutyl)-4-(4-((((1r,3r)-3-((2-(2,6-dioxopiperidin-3-yl)-1,3-dioxoisoindolin-5-yl)oxy)cyclobutyl)(2-morpholinoethyl)amino)methyl)piperidin-1-yl)benzamide] cannot be ordered by DC50: less than 1 nM for the first, less than 1 nM for the second.

Compared with `Cc1cc(O[C@H]2C(C)(C)[C@H](NC(=O)c3cnc(N4CCC(CN(C(C)C)[C@H]5C[C@H](Oc6ccc7c(c6)CN(C6CCC(=O)NC6=O)C7=O)C5)CC4)cn3)C2(C)C)cc(C)c1C#N` (mixture of isomers) [compound 126, rac-N-((1r,3r)-3-(4-cyano-3,5-dimethylphenoxy)-2,2,4,4-tetramethylcyclobutyl)-5-(4-((((1r,3r)-3-((2-(2,6-dioxopiperidin-3-yl)-1-oxoisoindolin-5-yl)oxy)cyclobutyl) (isopropyl)amino)methyl)piperidin-1-yl)pyrazine-2-carboxamide], `COCCN(CC1CCN(c2cnc(C(=O)N[C@H]3C(C)(C)[C@H](Oc4cc(C)c(C#N)c(C)c4)C3(C)C)cn2)CC1)[C@H]1C[C@H](Oc2ccc3c(c2)C(=O)N(C2CCC(=O)NC2=O)C3)C1` (mixture of isomers) [compound 223, rac-N-((1r,3r)-3-(4-cyano-3,5-dimethylphenoxy)-2,2,4,4-tetramethylcyclobutyl)-5-(4-((((1r,3r)-3-((2-(2,6-dioxopiperidin-3-yl)-3-oxoisoindolin-5-yl)oxy)cyclobutyl)(2-methoxyethyl)amino)methyl)piperidin-1-yl)pyrazine-2-carboxamide] is lower in DC50: greater than 100 nM for the first, less than 1 nM for the second.

Compared with `COc1cc(O[C@H]2C(C)(C)[C@H](NC(=O)c3cnc(N4CCC(CN(C(C)C)[C@H]5C[C@H](Oc6cc(OC)c7c(c6)C(=O)N(C6CCC(=O)NC6=O)C7=O)C5)CC4)cn3)C2(C)C)ccc1C#N` (some centres unmarked) [compound 98, N-((1r,3r)-3-(4-cyano-3-methoxyphenoxy)-2,2,4,4-tetramethylcyclobutyl)-5-(4-((((1r,3r)-3-((2-(2,6-dioxopiperidin-3-yl)-7-methoxy-1,3-dioxoisoindolin-5-yl)oxy)cyclobutyl) (isopropyl)amino)methyl)piperidin-1-yl)pyrazine-2-carboxamide], `COc1cc(O[C@H]2C(C)(C)[C@H](NC(=O)c3cnc(N4CCC(CN(CC(F)F)[C@H]5C[C@H](Oc6cc(OC)c7c(c6)C(=O)N(C6CCC(=O)NC6=O)C7=O)C5)CC4)cn3)C2(C)C)ccc1C#N` (some centres unmarked) [compound 135, N-((1r,3r)-3-(4-cyano-3-methoxyphenoxy)-2,2,4,4-tetramethylcyclobutyl)-5-(4-(((2,2-difluoroethyl)((1r,3r)-3-((2-(2,6-dioxopiperidin-3-yl)-7-methoxy-1,3-dioxoisoindolin-5-yl)oxy)cyclobutyl)amino)methyl)piperidin-1-yl)pyrazine-2-carboxamide] is higher in DC50: less than 1 nM for the first, 1 to 10 nM for the second.

First: Cc1cc(O[C@H]2C(C)(C)[C@H](NC(=O)c3cnc(N4CC(CN(C(C)C)[C@H]5C[C@H](Oc6ccc7c(c6)C(=O)N(C6CCC(=O)NC6=O)C7=O)C5)C4)cn3)C2(C)C)cc(C)c1C#N (some centres unmarked) [compound 131, N-((1r,3r)-3-(4-cyano-3,5-dimethylphenoxy)-2,2,4,4-tetramethylcyclobutyl)-5-(3-((((1r,3r)-3-((2-(2,6-dioxopiperidin-3-yl)-1,3-dioxoisoindolin-5-yl)oxy)cyclobutyl) (isopropyl)amino)methyl)azetidin-1-yl)pyrazine-2-carboxamide]
Second: Cc1cc(O[C@H]2C(C)(C)[C@H](NC(=O)c3cnc(N4CCC(CCN5CC(Oc6ccc7c(c6)C(=O)N(C6CCC(=O)NC6=O)C7=O)C5)CC4)cn3)C2(C)C)cc(C)c1C#N (some centres unmarked) [compound 115, N-((1r,3r)-3-(4-cyano-3,5-dimethylphenoxy)-2,2,4,4-tetramethylcyclobutyl)-5-(4-(2-(3-((2-(2,6-dioxopiperidin-3-yl)-1,3-dioxoisoindolin-5-yl)oxy)azetidin-1-yl)ethyl)piperidin-1-yl)pyrazine-2-carboxamide]
The DC50 of the first is higher: 1 to 10 nM for the first, less than 1 nM for the second.

`CC1(C)[C@H](NC(=O)c2cnc(N3CCC(CN(CCN4CCOCC4)[C@H]4C[C@H](Oc5ccc6c(c5)C(=O)N(C5CCC(=O)NC5=O)C6=O)C4)CC3)cn2)C(C)(C)[C@H]1Oc1ccc(C#N)c(C#N)c1` (some centres unmarked) [compound 233, N-((1r,3r)-3-(3,4-dicyanophenoxy)-2,2,4,4-tetramethylcyclobutyl)-5-(4-((((1r,3r)-3-((2-(2,6-dioxopiperidin-3-yl)-1,3-dioxoisoindolin-5-yl)oxy)cyclobutyl)(2-morpholinoethyl)amino)methyl)piperidin-1-yl)pyrazine-2-carboxamide] and `COCCOCCN(CC1CCN(c2ncc(C(=O)N[C@H]3C(C)(C)[C@H](Oc4cc(C)c(C#N)c(C)c4)C3(C)C)cn2)CC1)[C@H]1C[C@H](Oc2ccc3c(c2)C(=O)N(C2CCC(=O)NC2=O)C3=O)C1` (some centres unmarked) [compound 89, N-((1r,3r)-3-(4-cyano-3,5-dimethylphenoxy)-2,2,4,4-tetramethylcyclobutyl)-2-(4-((((1r,3r)-3-((2-(2,6-dioxopiperidin-3-yl)-1,3-dioxoisoindolin-5-yl)oxy)cyclobutyl)(2-(2-methoxyethoxy)ethyl)amino)methyl)piperidin-1-yl)pyrimidine-5-carboxamide] cannot be ordered by DC50: less than 1 nM for the first, less than 1 nM for the second.

`CC(C)Oc1cc(N2CCN(CC3CCN(c4ncc(C(=O)N[C@H]5C(C)(C)[C@H](Oc6ccc(C#N)c(Cl)c6)C5(C)C)cn4)CC3)CC2)cc2c1C(=O)N(C1CCC(=O)NC1=O)C2=O` (some centres unmarked) [compound 103, N-((1r,3r)-3-(3-chloro-4-cyanophenoxy)-2,2,4,4-tetramethylcyclobutyl)-2-(4-((4-(2-(2,6-dioxopiperidin-3-yl)-7-isopropoxy-1,3-dioxoisoindolin-5-yl)piperazin-1-yl)methyl)piperidin-1-yl)pyrimidine-5-carboxamide] was tested, and the DC50 was less than 1 nM.
